Drawing on US20240262795A1, “PYRAZINE COMPOUNDS AS INHIBITORS OF FLT3” (Biomea Fusion, Inc., priority 2021, published 2024), this text covers IC50 for twelve compounds.

The structures appear in SMILES notation. A value given as a limit tells only on which side of the number the result lay.

For one test, the target named is T1, FLT3-ITD (Homo sapiens, UniProt P36888, DUP595-601).
T1 construct: purchased Signalchem F-12-12CG-10
T1 sequence (P36888 with tags, fused parts or gaps DUP595-601 limits assumed): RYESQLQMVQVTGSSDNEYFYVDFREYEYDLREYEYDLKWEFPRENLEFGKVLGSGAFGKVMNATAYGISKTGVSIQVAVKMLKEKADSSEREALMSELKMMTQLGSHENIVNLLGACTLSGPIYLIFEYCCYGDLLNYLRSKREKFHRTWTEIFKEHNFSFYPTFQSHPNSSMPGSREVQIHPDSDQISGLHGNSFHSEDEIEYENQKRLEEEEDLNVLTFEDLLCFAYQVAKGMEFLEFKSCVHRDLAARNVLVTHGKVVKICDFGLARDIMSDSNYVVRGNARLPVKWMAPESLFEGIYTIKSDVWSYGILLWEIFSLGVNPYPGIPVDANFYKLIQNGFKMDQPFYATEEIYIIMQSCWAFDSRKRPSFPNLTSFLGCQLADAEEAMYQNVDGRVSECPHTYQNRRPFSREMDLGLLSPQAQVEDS
Nature of the test: FLT3-ITD Lance Ultra TR-FRET kinase assay. In kind it is biochemical. The text has this:
(§1) High throughput 384-well Lance Ultra TR-FRET based kinase assays were established for the WT FLT3 and FLT3-ITD enzymes and employed a ULight-labeled peptide […] and FLT3 proteins labelled with Eu-conjugated antibody […] (WuXi Aptec). The principle of TR-FRET is based on transfer of energy between a donor and acceptor fluorophore that results when the fluorophores are within close proximity (˜100 Å) of each other. Recombinant WT FLT3 (#PR4666C, M.W. 48.6 kDa) was purchased from Invitrogen and FLT3-ITD (FLT3-ITD-W51, #F-12-12CG-10, M.W. 76 kDa) was purchased from Signalchem. Optimal assay conditions for the WT FLT3 enzyme assay were as follows: 0.5 nM FLT3 protein, 50 nM ULight-JAK-1 (Tyr1023) substrate peptide (PerkinElmer #TRF0121), 100 μM ATP, 60 min reaction time. Optimal assay conditions for the FLT3-ITD enzyme assay were as follows: 0.0625 nM FLT3-ITD protein, 50 nM ULight-JAK-1 (Tyr1023) substrate peptide, 50 μM ATP, 90 min reaction time. Briefly, 11 dose 3× serial dilutions were prepared for the test compounds and the reference compound and 100 nanoliters transferred to appropriate wells of 384-well assay plates. Five microliters of 2× enzyme/peptide were added into assay wells, assay plates centrifuged at 1000 rpm for about 30 seconds, sealed with sealing film and incubated for 30 min at 23° C. Assay buffer comprised 50 mM HEPES (pH 7.5), 1 mM EDTA, 0.01% Brij-35, 10 mM MgCl2 and 2 mM DTT. Next 5 μl of a 2× ATP mixture were added into the assay wells and the plates centrifuged at 1000 rpm about 30 seconds, sealed with sealing film and incubated for 23° C. for appropriate duration. Following assay incubation (30 min for WT FLT3 and 60 min for FLT3-ITD) 10 μl 2× Detection Mixture (Eu-W1024 Anti-phosphotyrosine (PT66) 2 nM and EDTA 10 mM) was added to assay wells, assay plates centrifuge at 1000 rpm about 1 minutes, sealed with sealing film and incubated at 23° C. for 60 minutes. Assay plates were read on a Perkin Elmer Envision reader at two wavelengths (665/615) and the ratio of […] calculated.
(§2) Data was expressed as % of inhibition relative to the vehicle control and calculated as follows:
(§3) Results were analyzed by XLFIT5 as % inhibition vs. log [compound concentration] and IC50 values were calculated by non-linear regression using four parameter-logistic equation. Fit=(A+((B−A)/(1+((C/x)^D)))). Res=(y−fit).
For orientation: Time-resolved FRET reads energy transfer from a long-lived donor to a nearby acceptor.

The next test relates to MV-4-11. Nature of the test: Proliferation inhibition, CellTiter-Glo, MV-4-11. The format is cell-based, human. The note with it: Homo sapiens, MV4-11, 96 h; MV-4:11 cells, IC50 (4 days), CellTiter-Glo; read-out: MV-4:11 IC50. The method in brief:
(§4)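 About 10,000 cells per well in RPMI-1640 with 10% FBS. Compounds added 2 h after seeding at eight concentrations in duplicate (0.2% DMSO as 100% proliferation), then incubated ~96 h at 37° C, 5% CO2. ATP measured by CellTiter-Glo luminescence; IC50 from four-parameter logistic fit.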

A further test concerns the target T2, WT FLT3 (Homo sapiens, UniProt P36888).
T2 construct: purchased Invitrogen PR4666C
T2 sequence (P36888 564-993 limits assumed): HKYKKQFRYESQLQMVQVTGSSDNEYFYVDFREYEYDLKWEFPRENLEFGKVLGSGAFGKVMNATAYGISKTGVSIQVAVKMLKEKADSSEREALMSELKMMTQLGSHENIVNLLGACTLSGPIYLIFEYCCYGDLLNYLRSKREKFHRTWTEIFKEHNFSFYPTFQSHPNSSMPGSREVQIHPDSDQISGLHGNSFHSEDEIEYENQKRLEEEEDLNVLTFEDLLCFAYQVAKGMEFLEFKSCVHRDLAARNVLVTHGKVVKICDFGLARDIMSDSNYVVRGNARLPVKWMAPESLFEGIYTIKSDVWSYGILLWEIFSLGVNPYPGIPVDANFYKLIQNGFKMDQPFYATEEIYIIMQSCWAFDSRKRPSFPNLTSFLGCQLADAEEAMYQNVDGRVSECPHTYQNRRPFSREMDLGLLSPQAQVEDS
Nature of the test: WT FLT3 Lance Ultra TR-FRET kinase assay. The format is biochemical.
Text: as §1, §2, §3

The next test has as its system MOLM-13. Nature of the test: Proliferation inhibition, CellTiter-Glo, MOLM-13. In kind it is cell-based, human. The note with it: Homo sapiens, 96 h; MOLM-13 cells, IC50 (4 days), CellTiter-Glo; read-out: MOLM-13 IC50. An outline of the steps:
as §4
(Cellular ATP, detected with luciferase, serves as a proxy for viable cell number.)

The next test deals with K-562. Nature of the test: Proliferation inhibition, CellTiter-Glo, K-562. In kind it is cell-based, human. The note with it: Homo sapiens, K562, 96 h; K-562 cells, IC50 (4 days), CellTiter-Glo; read-out: K-562 IC50. The method in brief:
as §4

With `CCc1nc(C(N)=O)c(Nc2cccc(CCNC(=O)[C@H](C)N(C)C(=O)/C=C/CN(C)C)c2)nc1N(C)C` [Compound 137, (S,E)-5-(dimethylamino)-3-((3-(2-(2-(4-(dimethylamino)-N-methylbut-2-enamido)propanamido)ethyl)phenyl)amino)-6-ethylpyrazine-2-carboxamide], the IC50 against FLT3-ITD is 0.201 to 0.5 nM; with MV-4-11, under 1 nM; at WT FLT3, 0.501 to 1 nM; with MOLM-13 it was under 1 nM; in the test with K-562, over 500 nM.
In the case of `CCc1nc(C(N)=O)c(Nc2cccc(CCNC(=O)[C@H](C)N(C)C(=O)/C=C/CN(C)C)c2)nc1C1CC1` [Compound 138, (S,E)-5-cyclopropyl-3-((3-(2-(2-(4-(dimethylamino)-N-methylbut-2-enamido)propanamido)ethyl)phenyl)amino)-6-ethylpyrazine-2-carboxamide], the IC50 on FLT3-ITD was 0.201 to 0.5 nM; in the test with MV-4-11, under 1 nM; at WT FLT3, 0.201 to 0.5 nM; in the test on MOLM-13, 1 to 10 nM; in the test with K-562 it was over 500 nM.
As for `CCc1nc(C(N)=O)c(Nc2cc(CCNC(=O)[C@H](C)N(C)C(=O)/C=C/CN(C)C)cc(OC)c2)nc1N(C)C` [Compound 143], the IC50 against FLT3-ITD was 0.101 to 0.2 nM; in the test on MV-4-11, under 1 nM; against WT FLT3, 0.101 to 0.2 nM; with MOLM-13, under 1 nM; in the test with K-562 it was over 500 nM.
Take `CCc1nc(C(N)=O)c(Nc2cc(CCNC(=O)[C@H](C)N(C)C(=O)/C=C/CN(C)C)cc(OC)c2)nc1C1CC1` [Compound 144, (S,E)-5-cyclopropyl-3-((3-(2-(2-(4-(dimethylamino)-N-methylbut-2-enamido)propanamido)ethyl)-5-methoxyphenyl)amino)-6-ethylpyrazine-2-carboxamide]: the IC50 is 0.201 to 0.5 nM at FLT3-ITD; under 1 nM with MV-4-11; 0.201 to 0.5 nM against WT FLT3; under 1 nM in the test on MOLM-13; over 500 nM in the test on K-562.
For the compound `CCc1nc(C(N)=O)c(Nc2cccc(CCNC(=O)[C@H](C)N(C)C(=O)/C=C/CN3CCC3)c2)nc1N(C)C` [Compound 156, (S,E)-3-((3-(2-(2-(4-(azetidin-1-yl)-N-methylbut-2-enamido)propanamido)ethyl)phenyl)amino)-5-(dimethylamino)-6-ethylpyrazine-2-carboxamide], the IC50 is 0.201 to 0.5 nM against FLT3-ITD; under 1 nM with MV-4-11; 0.201 to 0.5 nM against WT FLT3; under 1 nM with MOLM-13; over 500 nM in the test on K-562.
For `CCc1nc(C(N)=O)c(Nc2cc(F)cc(CCNC(=O)[C@H](C)N(C)C(=O)/C=C/CN(C)C)c2)nc1N(C)C` [Compound 158, (S,E)-5-(dimethylamino)-3-((3-(2-(2-(4-(dimethylamino)-N-methylbut-2-enamido)propanamido)ethyl)-5-fluorophenyl)amino)-6-ethylpyrazine-2-carboxamide], the IC50 is 0.101 to 0.2 nM at FLT3-ITD; under 1 nM with MV-4-11; 0.101 to 0.2 nM on WT FLT3; under 1 nM with MOLM-13; over 500 nM in the test with K-562.
As for `CCc1nc(C(N)=O)c(Nc2cc(F)cc(CCNC(=O)[C@H](C)N(C)C(=O)/C=C/CN(C)C)c2)nc1C1CC1` [Compound 159, (S,E)-5-cyclopropyl-3-((3-(2-(2-(4-(dimethylamino)-N-methylbut-2-enamido)propanamido)ethyl)-5-fluorophenyl)amino)-6-ethylpyrazine-2-carboxamide], the half-inhibitory concentration (IC50) on FLT3-ITD was 0.201 to 0.5 nM; with MV-4-11 it was under 1 nM; at WT FLT3 it was 0.501 to 1 nM; in the test with MOLM-13, 1 to 10 nM; in the test on K-562, over 500 nM.
The matching figures for `CCc1nc(C(N)=O)c(Nc2cccc(CCNC(=O)[C@H](C)N(C)C(=O)C#CCN(C)C)c2)nc1N(C)C` [Compound 203, (S)-5-(dimethylamino)-3-((3-(2-(2-(4-(dimethylamino)-N-methylbut-2-ynamido)propanamido)ethyl)phenyl)amino)-6-ethylpyrazine-2-carboxamide]: 0.201 to 0.5 nM, under 1 nM, 0.501 to 1 nM, 1 to 10 nM and over 500 nM.
Taken in the same sequence, the figures for `C=CC(=O)N(C)[C@@H](C)C(=O)NCCc1cccc(Nc2nc(N(C)C)c(CC)nc2C(N)=O)c1` [Compound 213, (S)-5-(dimethylamino)-6-ethyl-3-((3-(2-(2-(N-methylacrylamido)propanamido)ethyl)phenyl)amino)pyrazine-2-carboxamide] were 0.101 to 0.2 nM, under 1 nM, 0.501 to 1 nM, 1 to 10 nM and over 500 nM.
Consider `CCc1nc(C(N)=O)c(Nc2cccc(CCNC(=O)[C@H](C)N(C)C(=O)/C=C/CN(C)C)c2)nc1N(C)CC` [Compound 221, (S,E)-3-((3-(2-(2-(4-(dimethylamino)-N-methylbut-2-enamido)propanamido)ethyl)phenyl)amino)-6-ethyl-5-(ethyl(methyl)amino)pyrazine-2-carboxamide], for which the IC50 is 0.101 to 0.2 nM at FLT3-ITD; under 1 nM in the test with MV-4-11; 0.501 to 1 nM on WT FLT3; under 1 nM with MOLM-13; over 500 nM with K-562.
As for `Cc1nc(C(N)=O)c(Nc2cc(F)cc(CCNC(=O)[C@H](C)N(C)C(=O)/C=C/CN(C)C)c2)nc1N(C)C` [Compound 239, 5-(dimethylamino)-3-[3-[2-[[(2S)-2-[[(E)-4-(dimethylamino)but-2-enoyl]-methyl-amino]propanoyl]amino]ethyl]-5-fluoro-anilino]-6-methyl-pyrazine-2-carboxamide], the IC50 against FLT3-ITD is 0.101 to 0.2 nM; in the test on MV-4-11, 1 to 10 nM; against WT FLT3 it was 0.501 to 1 nM; with MOLM-13, 10 to 100 nM; in the test on K-562, over 500 nM.
Turning to `CCc1nc(C(N)=O)c(Nc2cncc(CCNC(=O)[C@H](C)N(C)C(=O)/C=C/CN(C)C)c2)nc1C1CC1` [Compound 306, (S, E)-5-cyclopropyl-3-((5-(2-(2-(4-(dimethylamino)-N-methylbut-2-enamido)propanamido)ethyl)pyridin-3-yl)amino)-6-ethylpyrazine-2-carboxamide], the IC50 at FLT3-ITD is over 1 nM; in the test on MV-4-11 it was 1 to 10 nM; on WT FLT3, 0.501 to 1 nM; in the test on MOLM-13, 1 to 10 nM.

For orientation: IC50 means the concentration that inhibits the measured activity by half.
